# Results: the supplement of paper PMC10307832
# Columns and labels:
# Assay in all cases: relative viability (nuclei count vs DMSO), 5 days (fraction); higher = more cells survive
# [1] = system: A-427
# How it was run: (§1)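 Cells from lung cancer lines were seeded into 1536-well plates and, one day later, dosed by pin tool. Treatments were either a single drug or a fixed dose of an anchor drug with five library-drug doses (not always all listed) in √10 steps. After 5 days, nuclei were stained in a one-step fixation (final 0.05% Triton X-100, 1% formaldehyde, 1 ug/ml Hoechst) and counted on 4× images, and relative viability is the treated-to-vehicle nuclei ratio, as the median of duplicate plates.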
# [2] = system: ABC-1
# How it was run: as §1
# [3] = system: EPLC-272H
# How it was run: as §1
# [4] = system: HCC-15
# How it was run: as §1
# [5] = system: LC-2-ad
# How it was run: as §1
# [6] = system: LK-2
# How it was run: as §1
# [7] = system: NCI-H1734
# How it was run: as §1
# [8] = system: NCI-H1793
# How it was run: as §1
# [9] = system: NCI-H1915
# How it was run: as §1
# [10] = system: NCI-H1944
# How it was run: as §1
# [11] = system: NCI-H2009
# How it was run: as §1
# [12] = system: NCI-H2023
# How it was run: as §1
# [13] = system: NCI-H2342
# How it was run: as §1
# [14] = system: NCI-H2347
# How it was run: as §1
# [15] = system: NCI-H322M
# How it was run: as §1
# [16] = system: NCI-H358
# How it was run: as §1
# [17] = system: NCI-H441
# How it was run: as §1
# [18] = system: NCI-H522
# How it was run: as §1
# [19] = system: NCI-H647
# How it was run: as §1
# [20] = system: NCI-H838
# How it was run: as §1
# [21] = system: RERF-LC-KJ
# How it was run: as §1
# [22] = system: SW 1573
# How it was run: as §1
# [23] = system: UMC-11
# How it was run: as §1
smiles,measurement,setting,value
Cc1csc(=NC2CCCCC2)n1/N=C/c1ccc(O)c(O)c1O [MIM1] + COc1cccc2cc(-c3nc([C@H]4CC[C@H](C(=O)O)CC4)n4ncnc(N)c34)[nH]c12 [OSI-027] (partner 0.5 µM),relative viability,[1]; first compound 0.2 µM,0.432
same,relative viability,[1]; first compound 2 µM,0.48
same,relative viability,[1]; first compound 6.325 µM,0.456
same,relative viability,[1]; first compound 20 µM,0.191
same,relative viability,[2]; first compound 0.2 µM,0.481
same,relative viability,[2]; first compound 0.6325 µM,0.46
same,relative viability,[2]; first compound 2 µM,0.388
same,relative viability,[2]; first compound 6.325 µM,0.236
same,relative viability,[2]; first compound 20 µM,0.298
same,relative viability,[3]; first compound 0.2 µM,0.254
same,relative viability,[3]; first compound 0.6325 µM,0.269
same,relative viability,[3]; first compound 2 µM,0.308
same,relative viability,[3]; first compound 6.325 µM,0.24
same,relative viability,[3]; first compound 20 µM,0.141
same,relative viability,[4]; first compound 0.2 µM,0.747
same,relative viability,[4]; first compound 2 µM,0.778
same,relative viability,[4]; first compound 6.325 µM,0.469
same,relative viability,[4]; first compound 20 µM,0.102
same,relative viability,[5]; first compound 0.2 µM,0.909
same,relative viability,[5]; first compound 0.6325 µM,0.591
same,relative viability,[5]; first compound 2 µM,0.754
same,relative viability,[5]; first compound 6.325 µM,0.373
same,relative viability,[5]; first compound 20 µM,0.218
same,relative viability,[6]; first compound 0.2 µM,0.247
same,relative viability,[6]; first compound 0.6325 µM,0.201
same,relative viability,[6]; first compound 2 µM,0.181
same,relative viability,[6]; first compound 6.325 µM,0.169
same,relative viability,[6]; first compound 20 µM,0.184
same,relative viability,[7]; first compound 0.2 µM,0.666
same,relative viability,[7]; first compound 0.6325 µM,0.495
same,relative viability,[7]; first compound 2 µM,0.525
same,relative viability,[7]; first compound 6.325 µM,0.304
same,relative viability,[7]; first compound 20 µM,0.201
same,relative viability,[8]; first compound 0.2 µM,0.273
same,relative viability,[8]; first compound 2 µM,0.247
same,relative viability,[8]; first compound 6.325 µM,0.256
same,relative viability,[8]; first compound 20 µM,0.287
same,relative viability,[9]; first compound 0.2 µM,0.669
same,relative viability,[9]; first compound 0.6325 µM,0.495
same,relative viability,[9]; first compound 2 µM,0.609
same,relative viability,[9]; first compound 6.325 µM,0.49
same,relative viability,[9]; first compound 20 µM,0.232
same,relative viability,[10]; first compound 0.2 µM,0.441
same,relative viability,[10]; first compound 0.6325 µM,0.44
same,relative viability,[10]; first compound 2 µM,0.334
same,relative viability,[10]; first compound 6.325 µM,0.365
same,relative viability,[10]; first compound 20 µM,0.285
same,relative viability,[11]; first compound 0.2 µM,0.697
same,relative viability,[11]; first compound 0.6325 µM,0.685
same,relative viability,[11]; first compound 2 µM,0.684
same,relative viability,[11]; first compound 6.325 µM,0.424
same,relative viability,[11]; first compound 20 µM,0.142
same,relative viability,[12]; first compound 0.2 µM,0.422
same,relative viability,[12]; first compound 0.6325 µM,0.501
same,relative viability,[12]; first compound 2 µM,0.305
same,relative viability,[12]; first compound 6.325 µM,0.182
same,relative viability,[12]; first compound 20 µM,0.0588
same,relative viability,[13]; first compound 0.2 µM,0.675
same,relative viability,[13]; first compound 0.6325 µM,0.59
same,relative viability,[13]; first compound 2 µM,0.663
same,relative viability,[13]; first compound 6.325 µM,0.633
same,relative viability,[13]; first compound 20 µM,0.728
same,relative viability,[14]; first compound 0.2 µM,0.41
same,relative viability,[14]; first compound 0.6325 µM,0.449
same,relative viability,[14]; first compound 2 µM,0.437
same,relative viability,[14]; first compound 6.325 µM,0.392
same,relative viability,[14]; first compound 20 µM,0.287
same,relative viability,[15]; first compound 0.2 µM,0.593
same,relative viability,[15]; first compound 0.6325 µM,0.526
same,relative viability,[15]; first compound 2 µM,0.543
same,relative viability,[15]; first compound 6.325 µM,0.508
same,relative viability,[15]; first compound 20 µM,0.288
same,relative viability,[16]; first compound 0.2 µM,0.772
same,relative viability,[16]; first compound 0.6325 µM,0.7
same,relative viability,[16]; first compound 2 µM,0.755
same,relative viability,[16]; first compound 6.325 µM,0.447
same,relative viability,[16]; first compound 20 µM,0.128
same,relative viability,[17]; first compound 0.2 µM,0.575
same,relative viability,[17]; first compound 2 µM,0.625
same,relative viability,[17]; first compound 6.325 µM,0.472
same,relative viability,[17]; first compound 20 µM,0.191
same,relative viability,[18]; first compound 0.2 µM,0.761
same,relative viability,[18]; first compound 0.6325 µM,0.578
same,relative viability,[18]; first compound 2 µM,0.717
same,relative viability,[18]; first compound 6.325 µM,0.696
same,relative viability,[18]; first compound 20 µM,0.67
same,relative viability,[19]; first compound 0.2 µM,0.708
same,relative viability,[19]; first compound 0.6325 µM,0.658
same,relative viability,[19]; first compound 6.325 µM,0.557
same,relative viability,[19]; first compound 20 µM,0.43
same,relative viability,[20]; first compound 0.2 µM,0.469
same,relative viability,[20]; first compound 0.6325 µM,0.428
same,relative viability,[20]; first compound 2 µM,0.397
same,relative viability,[20]; first compound 6.325 µM,0.373
same,relative viability,[20]; first compound 20 µM,0.169
same,relative viability,[21]; first compound 0.2 µM,0.555
same,relative viability,[21]; first compound 0.6325 µM,0.629
same,relative viability,[21]; first compound 2 µM,0.403
same,relative viability,[21]; first compound 6.325 µM,0.313
same,relative viability,[21]; first compound 20 µM,0.195
same,relative viability,[22]; first compound 0.2 µM,0.689
same,relative viability,[22]; first compound 0.6325 µM,0.724
same,relative viability,[22]; first compound 2 µM,0.544
same,relative viability,[22]; first compound 6.325 µM,0.46
same,relative viability,[22]; first compound 20 µM,0.0875
same,relative viability,[23]; first compound 0.2 µM,0.504
same,relative viability,[23]; first compound 2 µM,0.579
same,relative viability,[23]; first compound 6.325 µM,0.397
same,relative viability,[23]; first compound 20 µM,0.264
